## Nc1nc2ccc(OC(F)(F)F)cc2s1
In 2-methoxyethanol, 278.15 K
  solubility (mole fraction): 0.383
In 2-methoxyethanol, 283.15 K
  solubility (mole fraction): 0.398
In 2-methoxyethanol, 288.15 K
  solubility (mole fraction): 0.405
In 2-methoxyethanol, 293.15 K
  solubility (mole fraction): 0.419
In 2-methoxyethanol, 298.15 K
  solubility (mole fraction): 0.428
In 2-methoxyethanol, 303.15 K
  solubility (mole fraction): 0.436
In 2-methoxyethanol, 308.15 K
  solubility (mole fraction): 0.449
In 2-methoxyethanol, 313.15 K
  solubility (mole fraction): 0.459
In 2-methoxyethanol, 318.15 K
  solubility (mole fraction): 0.469
In 2-methoxyethanol, 323.15 K
  solubility (mole fraction): 0.478
In 2-propoxyethanol, 278.15 K
  solubility (mole fraction): 0.449
In 2-propoxyethanol, 283.15 K
  solubility (mole fraction): 0.461
In 2-propoxyethanol, 288.15 K
  solubility (mole fraction): 0.469
In 2-propoxyethanol, 293.15 K
  solubility (mole fraction): 0.485
In 2-propoxyethanol, 298.15 K
  solubility (mole fraction): 0.496
In 2-propoxyethanol, 303.15 K
  solubility (mole fraction): 0.504
In 2-propoxyethanol, 308.15 K
  solubility (mole fraction): 0.514
In 2-propoxyethanol, 313.15 K
  solubility (mole fraction): 0.521
In 2-propoxyethanol, 318.15 K
  solubility (mole fraction): 0.53
In 2-propoxyethanol, 323.15 K
  solubility (mole fraction): 0.538
In DMAc, 278.15 K
  solubility (mole fraction): 0.0878
In DMAc, 283.15 K
  solubility (mole fraction): 0.0968
In DMAc, 288.15 K
  solubility (mole fraction): 0.106
In DMAc, 293.15 K
  solubility (mole fraction): 0.116
In DMAc, 298.15 K
  solubility (mole fraction): 0.129
In DMAc, 303.15 K
  solubility (mole fraction): 0.142
In DMAc, 308.15 K
  solubility (mole fraction): 0.156
In DMAc, 313.15 K
  solubility (mole fraction): 0.17
In DMAc, 318.15 K
  solubility (mole fraction): 0.188
In DMAc, 323.15 K
  solubility (mole fraction): 0.203
In acetone, 278.15 K
  solubility (mole fraction): 0.371
In acetone, 283.15 K
  solubility (mole fraction): 0.379
In acetone, 288.15 K
  solubility (mole fraction): 0.387
In acetone, 293.15 K
  solubility (mole fraction): 0.401
In acetone, 298.15 K
  solubility (mole fraction): 0.414
In acetone, 303.15 K
  solubility (mole fraction): 0.425
In acetone, 308.15 K
  solubility (mole fraction): 0.437
In acetone, 313.15 K
  solubility (mole fraction): 0.449
In acetone, 318.15 K
  solubility (mole fraction): 0.464
In acetone, 323.15 K
  solubility (mole fraction): 0.477
In acetonitrile, 278.15 K
  solubility (mole fraction): 0.156
In acetonitrile, 283.15 K
  solubility (mole fraction): 0.176
In acetonitrile, 288.15 K
  solubility (mole fraction): 0.197
In acetonitrile, 293.15 K
  solubility (mole fraction): 0.216
In acetonitrile, 298.15 K
  solubility (mole fraction): 0.245
In acetonitrile, 303.15 K
  solubility (mole fraction): 0.267
In acetonitrile, 308.15 K
  solubility (mole fraction): 0.302
In acetonitrile, 313.15 K
  solubility (mole fraction): 0.336
In acetonitrile, 318.15 K
  solubility (mole fraction): 0.365
In acetonitrile, 323.15 K
  solubility (mole fraction): 0.387
In ethanol, 278.15 K
  solubility (mole fraction): 0.179
In ethanol, 283.15 K
  solubility (mole fraction): 0.188
In ethanol, 288.15 K
  solubility (mole fraction): 0.198
In ethanol, 293.15 K
  solubility (mole fraction): 0.212
In ethanol, 298.15 K
  solubility (mole fraction): 0.222
In ethanol, 303.15 K
  solubility (mole fraction): 0.236
In ethanol, 308.15 K
  solubility (mole fraction): 0.254
In ethanol, 313.15 K
  solubility (mole fraction): 0.273
In ethanol, 318.15 K
  solubility (mole fraction): 0.294
In ethanol, 323.15 K
  solubility (mole fraction): 0.308
In isopropyl acetate, 278.15 K
  solubility (mole fraction): 0.331
In isopropyl acetate, 283.15 K
  solubility (mole fraction): 0.341
In isopropyl acetate, 288.15 K
  solubility (mole fraction): 0.351
In isopropyl acetate, 293.15 K
  solubility (mole fraction): 0.361
In isopropyl acetate, 298.15 K
  solubility (mole fraction): 0.376
In isopropyl acetate, 303.15 K
  solubility (mole fraction): 0.386
In isopropyl acetate, 308.15 K
  solubility (mole fraction): 0.395
In isopropyl acetate, 313.15 K
  solubility (mole fraction): 0.411
In isopropyl acetate, 318.15 K
  solubility (mole fraction): 0.43
In isopropyl acetate, 323.15 K
  solubility (mole fraction): 0.443
In n-butanol, 278.15 K
  solubility (mole fraction): 0.185
In n-butanol, 283.15 K
  solubility (mole fraction): 0.197
In n-butanol, 288.15 K
  solubility (mole fraction): 0.207
In n-butanol, 293.15 K
  solubility (mole fraction): 0.221
In n-butanol, 298.15 K
  solubility (mole fraction): 0.236
In n-butanol, 303.15 K
  solubility (mole fraction): 0.254
In n-butanol, 308.15 K
  solubility (mole fraction): 0.268
In n-butanol, 313.15 K
  solubility (mole fraction): 0.288
In n-butanol, 318.15 K
  solubility (mole fraction): 0.313
In n-butanol, 323.15 K
  solubility (mole fraction): 0.337
In n-pentanol, 278.15 K
  solubility (mole fraction): 0.197
In n-pentanol, 283.15 K
  solubility (mole fraction): 0.205
In n-pentanol, 288.15 K
  solubility (mole fraction): 0.216
In n-pentanol, 293.15 K
  solubility (mole fraction): 0.231
In n-pentanol, 298.15 K
  solubility (mole fraction): 0.249
In n-pentanol, 303.15 K
  solubility (mole fraction): 0.264
In n-pentanol, 308.15 K
  solubility (mole fraction): 0.281
In n-pentanol, 313.15 K
  solubility (mole fraction): 0.303
In n-pentanol, 318.15 K
  solubility (mole fraction): 0.325
In n-pentanol, 323.15 K
  solubility (mole fraction): 0.342
In n-pentyl acetate, 278.15 K
  solubility (mole fraction): 0.348
In n-pentyl acetate, 283.15 K
  solubility (mole fraction): 0.356
In n-pentyl acetate, 288.15 K
  solubility (mole fraction): 0.365
In n-pentyl acetate, 293.15 K
  solubility (mole fraction): 0.374
In n-pentyl acetate, 298.15 K
  solubility (mole fraction): 0.385
In n-pentyl acetate, 303.15 K
  solubility (mole fraction): 0.395
In n-pentyl acetate, 308.15 K
  solubility (mole fraction): 0.408
In n-pentyl acetate, 313.15 K
  solubility (mole fraction): 0.425
In n-pentyl acetate, 318.15 K
  solubility (mole fraction): 0.439
In n-pentyl acetate, 323.15 K
  solubility (mole fraction): 0.46
In n-propanol, 278.15 K
  solubility (mole fraction): 0.179
In n-propanol, 283.15 K
  solubility (mole fraction): 0.189
In n-propanol, 288.15 K
  solubility (mole fraction): 0.202
In n-propanol, 293.15 K
  solubility (mole fraction): 0.215
In n-propanol, 298.15 K
  solubility (mole fraction): 0.23
In n-propanol, 303.15 K
  solubility (mole fraction): 0.249
In n-propanol, 308.15 K
  solubility (mole fraction): 0.267
In n-propanol, 313.15 K
  solubility (mole fraction): 0.287
In n-propanol, 318.15 K
  solubility (mole fraction): 0.312
In n-propanol, 323.15 K
  solubility (mole fraction): 0.333
In n-propyl acetate, 278.15 K
  solubility (mole fraction): 0.349
In n-propyl acetate, 283.15 K
  solubility (mole fraction): 0.36
In n-propyl acetate, 288.15 K
  solubility (mole fraction): 0.368
In n-propyl acetate, 293.15 K
  solubility (mole fraction): 0.377
In n-propyl acetate, 298.15 K
  solubility (mole fraction): 0.389
In n-propyl acetate, 303.15 K
  solubility (mole fraction): 0.398
In n-propyl acetate, 308.15 K
  solubility (mole fraction): 0.414
In n-propyl acetate, 313.15 K
  solubility (mole fraction): 0.429
In n-propyl acetate, 318.15 K
  solubility (mole fraction): 0.446
In n-propyl acetate, 323.15 K
  solubility (mole fraction): 0.463

— BigSolDB 2.1
